Ends that are not written are not given here. Peptide text beside a SMILES is read from it.
What was measured:
Assay type in all cases: cell-based
E. coli ATCC 25922 = details: for antimicrobial activity against E. coli (in words): activity threshold defined as MIC ⩽ 128 µg mL^−1; for MIC against E. coli: ATCC 25922
Description: (§1) 2.3Details of the wet-lab evaluation […]
(§2) Pathogens used for minimum inhibitory concentration (MIC) measurements included E. coli ATCC 25922 and S. aureus
(§3) ATCC 25923. Both pathogens were streaked on Luria–Bertani (LB) agar and incubated at 37°C overnight. Individual colonies
(§4) were then selected from the agar plates and transferred to Mueller–Hinton broth (MHB) (Hopebio, China) for further cultivation.
(§5) The cultures were shaken at 160 rpm at 37°C overnight. Once the turbidity of the bacterial suspensions reached between 0.4
(§6) and 0.6 McFarland (MCF), the suspensions were diluted 20-fold with MHB. For the preparation of antimicrobial peptide
(§7) solutions, chemically synthesized peptides were dissolved in either ultrapure water (Biosharp, China) or dimethyl sulfoxide
(§8) (DMSO) (Biosharp, China) to achieve a stock concentration of […]. This stock solution was then further diluted with
(§9) MHB to obtain the concentration gradient of 2 to 512 µg/mL for testing. Subsequently, 200 µL of each peptide dilution was
(§10) pipetted into 96-well plates, followed by the addition of 10 µL of the diluted bacterial suspension to each well. The plates were
(§11) incubated at 37°C for 14-20 hours, and MIC values were determined as the lowest peptide concentration at which no bacterial
(§12) growth was observed. Antimicrobial activity assays were conducted in 96-well plates with […] experimental groups as follows:
(§13) 1) blank control group, containing 200 µL of MHB without bacterial suspension; 2) bacterial control group, with 200 µL of
(§14) MHB and 10 µL of bacterial suspension without peptide; 3) peptide treatment groups, consisting of 200 µL of MHB containing
(§15) varying peptide concentration gradient of 2 to 512 µg/mL along with 10 µL of bacterial suspension. All experiments were
(§16) conducted in triplicate. The positive (proper growth of bacteria) and negative (sterility) controls were included.
(§17) The Cell Counting Kit-8 (CCK-8) assay was employed to evaluate the cytotoxicity of peptides against human lung epithelial
(§18) Beas-2B cells. The cells were seeded at a density of 5× 10^3 cells per 100 µL in 96-well plates and cultured overnight at 37°C
(§19) with 5% CO2. Subsequently, the cells were treated with 100 µL of F-12K medium (Procell, China) containing the peptide
(§20) concentration gradient of 4 to 512 µg/mL and incubated for 24 hours. After incubation, 10 µL of CCK-8 solution (Abbkine,
(§21) China) was added to each well, and the cells were incubated for an additional 4 hours at 37°C. Optical density (OD) at 450 nm
(§22) was measured using an automated microplate reader (BioTek, USA). Each treatment was performed in six duplicate wells.
(§23) Cell viability was calculated as the percentage relative to the control, using the formula: Cell viability (%) = [(OD[peptide] -
(§24) OD[blank]) / (OD[control] - OD[blank])] × 100%.
(§25) 3.1More landscape for peptide datasets
(§26) For the diversity of GO terms, the biological process category encompasses 3,430 terms (accounting for 47% of the total terms)
(§27) and 245,683 peptides (representing 22% of the total peptides); the cellular component category includes 819 terms (11%) and
(§28) 469,675 peptides (43%); the molecular function category covers 3,017 terms (42%) and 389,436 peptides (35%). In the context
(§29) of pathogen diversity (Table 1), the Gram-positive group comprises 24 distinct pathogens (accounting for 43% of the total
(§30) pathogen numbers), and 31,726 peptide terms (representing 49% of the total peptide numbers). The Gram-negative group is
(§31) characterized by 17 pathogens (constituting 30% of the pathogen diversity), and 28,206 peptide terms (making up 44% of the […]

S. aureus ATCC 25923 = system: S. aureus ATCC 25923
Description: as §1, §2, §3, §4, §5, §6, §7, §8, §9, §10, §11, §12, §13, §14, §15, §16, §17, §18, §19, §20, §21, §22, §23, §24, §25, §26, §27, §28, §29, §30, §31

[1] = system: human lung epithelial Beas-2B cells; details: 24 h

Compound	antimicrobial activity against E. coli (in words) (E. coli ATCC 25922)	MIC against S. aureus (S. aureus ATCC 25923; ATCC 25923) [µg/mL]	antimicrobial activity against S. aureus (in words) (S. aureus ATCC 25923; activity threshold defined as MIC ⩽ 128 µg mL^−1)	peptide concentration causing 50% cytotoxicity (CC50) [1] [µg/mL]	MIC against E. coli (E. coli ATCC 25922) [µg/mL]
CC(C)C[C@H](NC(=O)[C@H](Cc1ccc(O)cc1)NC(=O)CNC(=O)[C@H](CO)NC(=O)[C@H](CC(C)C)NC(=O)[C@H](CCCNC(=N)N)NC(=O)[C@H](CCCNC(=N)N)NC(=O)[C@@H](NC(=O)[C@H](Cc1ccccc1)NC(=O)[C@H](CC(C)C)NC(=O)[C@@H](N)Cc1ccccc1)C(C)C)C(=O)N[C@@H](CC(N)=O)C(=O)N[C@@H](Cc1ccc(O)cc1)C(=O)N[C@H](C(=O)N[C@H](C(=O)N[C@@H](CCCNC(=N)N)C(=O)N[C@@H](CS)C(=O)N[C@@H](CCCNC(=N)N)C(=O)N[C@@H](CCCNC(=N)N)C(=O)N[C@@H](Cc1ccccc1)C(=O)N[C@@H](CCCCN)C(=O)N[C@@H](Cc1ccccc1)C(=O)N[C@@H](CS)C(=O)N[C@@H](C)C(=O)O)C(C)C)[C@@H](C)O [Pep6] (H-FLFVRRLSGYLNYTVRCRRFKFCA-OH; N-terminus and C-terminus assumed)	demonstrated the activity	–	–	–	–
AKRYYWRWFKHWYRFAHG [Pep10]	exhibit antimicrobial activity	16	exhibit antimicrobial activity	≥ 256	–
KRTSQQRLQRLITVGRFRLW [Pep7]	–	–	–	–	≥ 512
MARRKPLGKKLRLRAAFK [Pep8]	–	–	–	–	≥ 512

Reference: PMC12591163, “Controllable Generation of Pathogen‐Specific Antimicrobial Peptides Through Knowledge‐Aware Prompt Diffusion Model” (Advanced Science, 2025)
